# Data as given in patent publication US20230355647A1, “Marker for determining anti-cancer effects of mitochondrial oxidative phosphorylation pathway inhibitor” (NANJING SHIJIANG MEDICINE TECHNOLOGY CO., LTD, priority 2020, published 2023).
# Legend:
# WSU-DLCL2 = assay: Cell viability (CellTiter-Glo), WSU-DLCL2; type: cell-based; details: Homo sapiens, WSUDLCL2; WSU-DLCL2 cell line, 3-4 days of culture
# Procedure: (§1) Cell viability was detected using the Promega CellTiter-Glo kit, the kit reflected cell viability by directly measuring intracellular ATP content. The inhibitory effect (IC50 value) of Gboxin, a mitochondrial oxidative phosphorylation pathway inhibitor, on different tumor cell lines was tested in the Example. The name, source, and culture condition of each tumor cell line were as follows: Cell line WSU-DLCL2 (DSMZ, No. ACC-575) was cultured in 10% fetal bovine serum-containing RPMI1640 medium (+P/S). […] Cell viability was detected using the Promega CellTiter-Glo kit, the kit reflected cell viability by directly measuring intracellular ATP content.
# ATF4 stress pathway = assay: Western Blot of ATF4 in tumor cells after inhibitor treatment; type: cell-based, human; details: 1 μM or 3 μM Gboxin, 1 μM Oligomycin A, 12 h; for activity of ATF4 stress pathway: FIG. 3; for ATF4 stress pathway (ATF4 content): FIG. 2
# Procedure: (§2) The inhibition of mitochondrial oxidative phosphorylation pathway could cause the activation of ATF4 stress pathway and the decrease of mTOR pathway activity, the activity of the mTOR pathway was reflected by the expression level of phosphorylated ribosomal protein S6 (ie, p-S6).
# (§3) The tumor cells NCI-H82, G-401 and WSU-DLCL2 were cultured in the relevant 10% FBS-containing medium (+p/s), and incubated overnight, then 1 μM Gboxin, 3 μM Gboxin or 1 μM Oligomycin A as shown in FIG. 2 was added. After 12 h of incubation, the content of ATF4 and p-S6 protein was detected using Western Blot, the experiment result was shown in FIG. 2.
# (§4) The cell lines SF126, CFPAC-1 and 786-O were cultured in the relevant 10% FBS-containing medium (+p/s), and incubated overnight, then 1 μM Gboxin, 3 μM Gboxin or 1 μM Oligomycin A as shown in FIG. 3 was added. After 12 h of incubation, the content of ATF4 and p-S6 protein was detected using Western Blot, the experiment result was shown in FIG. 3.
# HCC70 = assay: Cell viability (CellTiter-Glo), HCC70; type: cell-based; details: Homo sapiens; HCC70 cell line, 3-4 days of culture
# Procedure: (§5) Cell viability was detected using the Promega CellTiter-Glo kit, the kit reflected cell viability by directly measuring intracellular ATP content. The inhibitory effect (IC50 value) of Gboxin, a mitochondrial oxidative phosphorylation pathway inhibitor, on different tumor cell lines was tested in the Example. The name, source, and culture condition of each tumor cell line were as follows:
# Cell line HCC70 (ATCC, No. CRL-2315) was cultured in 10% fetal bovine serum-containing RPMI1640 medium (+P/S).
# (§6) The above tumor cells were cultured in the relevant medium (+P/S), and incubated for 3 h, then the gradient diluted Gboxin was added, and IC50 (50% inhibiting concentration) was measured after 3-4 days of culture.
# GAK = assay: Cell viability (CellTiter-Glo), GAK; type: cell-based; details: GAK cell line, 3-4 days of culture
# Procedure: as §5
# Cell line GAK (JCRB, No. JCRB0180) was cultured in 20% fetal bovine serum-containing Ham's F12 medium (+P/S).
# as §6
# 22RV1 = assay: Cell viability (CellTiter-Glo), 22RV1; type: cell-based; details: Homo sapiens; 22RV1 cell line, 3-4 days of culture
# Procedure: as §5
# Cell line 22RV1 (ATCC, No. CRL-2505) was cultured in 10% fetal bovine serum-containing RPMI1640 medium (+P/S).
# as §6
# H9 = assay: Cell viability (CellTiter-Glo), H9; type: cell-based; details: Homo sapiens; H9 cell line, 3-4 days of culture
# Procedure: as §5
# Cell line H9 (ATCC, No. HTB-176) was cultured in 10% fetal bovine serum-containing RPMI1640 medium (+P/S).
# as §6
# A-375 = assay: Cell viability (CellTiter-Glo), A-375; type: cell-based; details: Homo sapiens; A-375 cell line, 3-4 days of culture
# Procedure: as §5
# Cell line A-375 (ATCC, No. CRL-1619) was cultured in 10% fetal bovine serum-containing DMEM medium (+P/S).
# as §6
# HH = assay: Cell viability (CellTiter-Glo), HH; type: cell-based; details: Homo sapiens; HH cell line, 3-4 days of culture
# Procedure: as §5
# Cell line HH (ATCC, No. CRL-2105) was cultured in 10% fetal bovine serum-containing RPMI1640 medium (+P/S).
# as §6
# CHL-1 = assay: Cell viability (CellTiter-Glo), CHL-1; type: cell-based; details: Homo sapiens; CHL-1 cell line, 3-4 days of culture
# Procedure: as §5
# Cell line CHL-1 (ATCC, No. CRL-9446) was cultured in 10% fetal bovine serum-containing DMEM medium (+P/S).
# as §6
# SF126 = assay: Cell viability (CellTiter-Glo), SF126; type: cell-based; details: Homo sapiens, SF-126; SF126 cell line, 3-4 days of culture
# Procedure: as §1, with “SF126 (JCRB,” for “WSU-DLCL2 (DSMZ,”, “IFO50286)” for “ACC-575)”, “EMEM” for “RPMI1640”
# mTOR pathway (p-S6) = assay: Western Blot of p-S6 protein in tumor cells after inhibitor treatment; type: cell-based, human; details: 1 μM or 3 μM Gboxin, 1 μM Oligomycin A, 12 h; for activity of mTOR pathway (p-S6): FIG. 3; for content of p-S6 protein (activity of mTOR pathway): FIG. 2
# Procedure: as §2, §3, §4
# SW48 = assay: Cell viability (CellTiter-Glo), SW48; type: cell-based; details: Homo sapiens; SW48 cell line, 3-4 days of culture
# Procedure: as §1, with “SW48 (ATCC,” for “WSU-DLCL2 (DSMZ,”, “CCL-231)” for “ACC-575)”, “Leibovitz's L-15” for “RPMI1640”
# U-87 MG = assay: Cell viability (CellTiter-Glo), U-87 MG; type: cell-based; details: Homo sapiens; U-87 MG cell line, 3-4 days of culture
# Procedure: as §5
# Cell line U-87 MG (ATCC, No. HTB-14) was cultured in 10% fetal bovine serum-containing EMEM medium (+P/S).
# as §6
smiles,measurement,setting,value
CCc1n(CC(=O)O[C@@H]2C[C@H](C)CC[C@H]2C(C)C)c2ccccc2[n+]1C.[Cl-] [Gboxin],IC50,WSU-DLCL2,682 nM
same,activity of ATF4 stress pathway,ATF4 stress pathway; 786-O cells,no significant changes
same,activity of ATF4 stress pathway,ATF4 stress pathway; CFPAC-1 cells,no significant changes
same,ATF4 stress pathway (ATF4 content),ATF4 stress pathway; G-401 cells,up-regulated
same,ATF4 stress pathway (ATF4 content),ATF4 stress pathway; NCI-H82 cells,up-regulated
same,activity of ATF4 stress pathway,ATF4 stress pathway; SF126 cells,no significant changes
same,ATF4 stress pathway (ATF4 content),ATF4 stress pathway; WSU-DLCL2 cells,up-regulated
same,IC50,HCC70,11.2 µM
same,IC50,GAK,7.05 µM
same,IC50,22RV1,2530 nM
same,IC50,H9,3.34 µM
same,IC50,A-375,4.65 µM
same,IC50,HH,2670 nM
same,IC50,CHL-1,7.68 µM
same,IC50,SF126,> 30 µM
same,activity of mTOR pathway (p-S6),mTOR pathway (p-S6); 786-O cells,no significant changes
same,activity of mTOR pathway (p-S6),mTOR pathway (p-S6); CFPAC-1 cells,no significant changes
same,content of p-S6 protein (activity of mTOR pathway),mTOR pathway (p-S6); G-401 cells,decreased
same,content of p-S6 protein (activity of mTOR pathway),mTOR pathway (p-S6); NCI-H82 cells,decreased
same,activity of mTOR pathway (p-S6),mTOR pathway (p-S6); SF126 cells,no significant changes
same,content of p-S6 protein (activity of mTOR pathway),mTOR pathway (p-S6); WSU-DLCL2 cells,decreased
same,IC50,SW48,1540 nM
same,IC50,U-87 MG,12.3 µM
